In brackets after ≈: the same amount, converted by molar mass.
Key:
[1] = Inhibition of bacterial DNA gyrase
[2] = Inhibition of bacterial DNA topoisomerase 4
Escherichia coli = assay: Antibacterial activity against Escherichia coli KL16; assay type: functional
Staphylococcus aureus [3] = assay: Antibacterial activity against Staphylococcus aureus ATCC 13709; assay type: functional
Streptococcus pneumoniae = assay: Antibacterial activity against Streptococcus pneumoniae ATCC 49619; assay type: functional
Staphylococcus aureus [4] = assay: Antibacterial activity against ciprofloxacin resistant methicillin resistant Staphylococcus aureus OC4222; assay type: functional
Staphylococcus aureus [5] = assay: Antibacterial activity against ciprofloxacin resistant methicillin resistant Staphylococcus aureus OC5273; assay type: functional
Staphylococcus aureus [6] = assay: Antibacterial activity against quinolone susceptible methicillin resistant Staphylococcus aureus OC2878; assay type: functional
Staphylococcus aureus [7] = assay: Antibacterial activity against ciprofloxacin resistant methicillin resistant Staphylococcus aureus OC3946; assay type: functional
Staphylococcus aureus [8] = assay: Antibacterial activity against ciprofloxacin resistant methicillin resistant Staphylococcus aureus OC4159; assay type: functional

Row | Structure (SMILES) | IC50 [1] [µg/mL] | IC50 [2] [µg/mL] | MIC (Escherichia coli) [µg/mL] | MIC (Staphylococcus aureus [3]) [µg/mL] | MIC (Streptococcus pneumoniae) [µg/mL] | MIC (Staphylococcus aureus [4]) [µg/mL] | MIC (Staphylococcus aureus [5]) [µg/mL] | MIC (Staphylococcus aureus [6]) [µg/mL] | MIC (Staphylococcus aureus [7]) [µg/mL] | MIC (Staphylococcus aureus [8]) [µg/mL]
1 | O=C1CSc2ccc(C(=O)NC3CCc4nn(-c5cccc6ccccc56)cc4C3)cc2N1 (centres undefined) | 2 (≈ 4.4 µM) | 0.125 (≈ 0.275 µM) | > 128 | 0.5 (≈ 1.1 µM) | 8 (≈ 17.6 µM) |  |  |  |  | 
2 | O=C1CSc2ccc(C(=O)NC3CCc4nn(-c5ccnc6cc(Cl)ccc56)cc4C3)cc2N1 (centres undefined) | 16 (≈ 32.7 µM) | > 0.5 | > 128 | 2 (≈ 4.08 µM) | > 128 |  |  |  |  | 
3 | Cc1cc(-n2cc3c(n2)CCC(NC(=O)c2ccc4c(c2)NC(=O)CS4)C3)c2cc(F)ccc2n1 (centres undefined) | 4 (≈ 8.2 µM) | 0.5 (≈ 1.03 µM) | > 128 | 8 (≈ 16.4 µM) | > 128 |  |  |  |  | 
4 | COc1ccc2nccc(-n3cc4c(n3)CCC(NC(=O)c3ccc5c(c3)OCCO5)C4)c2n1 (centres undefined) | > 32 | > 1 | > 128 | 0.5 (≈ 1.09 µM) | 8 (≈ 17.5 µM) |  |  |  |  | 
5 | COc1ccc2nccc(-n3cc4c(n3)CCC(NC(=O)c3ccc5c(c3)OCCO5)C4)c2c1 (centres undefined) | 4 (≈ 8.76 µM) |  | > 128 | 2 (≈ 4.38 µM) | 8 (≈ 17.5 µM) |  |  |  |  | 
6 | COc1ccc2nccc(-n3cc4c(n3)CCC(NCc3ccc5c(c3)OCCO5)C4)c2n1 (centres undefined) | 1 (≈ 2.25 µM) | 0.25 (≈ 0.564 µM) | 32 (≈ 72.2 µM) | 0.03 (≈ 0.0676 µM) | 0.5 (≈ 1.13 µM) |  |  |  |  | 
7 | COc1ccc2nccc(-n3cc4c(n3)CCC(NCc3ccc5c(c3)OCCCO5)C4)c2n1 (centres undefined) | 4 (≈ 8.74 µM) | 1 (≈ 2.19 µM) | > 128 | 1 (≈ 2.19 µM) | 4 (≈ 8.74 µM) |  |  |  |  | 
8 | COc1ccc2nccc(-n3cc4c(n3)CCC(NCc3ccc5c(c3)NCCS5)C4)c2n1 (centres undefined) | 0.5 (≈ 1.09 µM) | 0.03 (≈ 0.0654 µM) | 8 (≈ 17.4 µM) | < 0.125 | 0.25 (≈ 0.545 µM) |  |  |  |  | 
9 | COc1ccc2nccc(-n3cc4c(n3)CCC(NCc3ccc5c(c3)NCCS5)C4)c2c1 (centres undefined) | 0.5 (≈ 1.09 µM) | 0.0625 (≈ 0.137 µM) | 8 (≈ 17.5 µM) | 0.5 (≈ 1.09 µM) | 0.5 (≈ 1.09 µM) |  |  |  |  | 
10 | COc1ccc2nccc(-n3cc4c(n3)CCC(NCc3ccc5c(n3)NC(=O)CO5)C4)c2c1 (centres undefined) | 0.06 (≈ 0.131 µM) | 0.016 (≈ 0.035 µM) | 2 (≈ 4.38 µM) | 1 (≈ 2.19 µM) | 2 (≈ 4.38 µM) |  |  |  |  | 
11 | COc1ccc2nccc(-n3cc4c(n3)CCC(NC(=O)c3ccc5c(c3)NC(=O)CO5)C4)c2n1 (centres undefined) | 1 (≈ 2.13 µM) | 0.25 (≈ 0.531 µM) | 4 (≈ 8.5 µM) | 0.125 (≈ 0.266 µM) | 8 (≈ 17 µM) |  |  |  |  | 
12 | COc1ccc2nccc(-n3cc4c(n3)CCC(NC(=O)c3cc5ccccc5[nH]3)C4)c2c1 (centres undefined) | > 16 | 1 (≈ 2.29 µM) | > 128 | 1 (≈ 2.29 µM) | 8 (≈ 18.3 µM) |  |  |  |  | 
13 | COc1ccc2nccc(-n3cc4c(n3)CCC(NC(=O)c3c(F)cc5c(c3F)NC(=O)CS5)C4)c2c1 (centres undefined) | 1 (≈ 1.92 µM) |  | 8 (≈ 15.3 µM) | 0.125 (≈ 0.24 µM) | 1 (≈ 1.92 µM) |  |  |  |  | 
14 | COc1ccc2nccc(-n3cc4c(n3)CCC(NC(=O)c3cc5c(cc3Cl)SCC(=O)N5)C4)c2n1 (centres undefined) | 0.12 (≈ 0.23 µM) |  | 2 (≈ 3.84 µM) | < 0.125 | 4 (≈ 7.68 µM) |  |  |  |  | 
15 | COc1ccc2nccc(-n3cc4c(n3)CCC(NC(=O)c3cc5c(cc3Cl)SCC(=O)N5)C4)c2c1 (centres undefined) | 0.5 (≈ 0.962 µM) |  | 2 (≈ 3.85 µM) | < 0.125 | 2 (≈ 3.85 µM) |  |  |  |  | 
16 | COc1ccc2nccc(-n3cc4c(n3)CCC(NC(=O)c3cc5c(cc3Br)SCC(=O)N5)C4)c2n1 (centres undefined) | 0.25 (≈ 0.442 µM) | 0.25 (≈ 0.442 µM) | 2 (≈ 3.54 µM) | 0.125 (≈ 0.221 µM) | 2 (≈ 3.54 µM) |  |  |  |  | 
17 | COc1ccc2nccc(-n3cc4c(n3)CCC(NC(=O)c3cc5c(cc3C(F)(F)F)SCC(=O)N5)C4)c2c1 (centres undefined) | 1 (≈ 1.81 µM) | 0.25 (≈ 0.452 µM) | 8 (≈ 14.5 µM) | 0.125 (≈ 0.226 µM) | 8 (≈ 14.5 µM) |  |  |  |  | 
18 | COc1ccc2nccc(-n3cc4c(n3)CCC(NC(=O)c3cc5c(cc3OC)SCC(=O)N5)C4)c2n1 (centres undefined) |  |  | > 16 | 2 (≈ 3.87 µM) | 16 (≈ 31 µM) |  |  |  |  | 
19 | COc1ccc2nccc(-n3cc4c(n3)CCC(NC(=O)c3cc5c(cc3C)SCC(=O)N5)C4)c2n1 (centres undefined) |  |  | > 16 | 0.25 (≈ 0.499 µM) | > 16 |  |  |  |  | 

Row | Structure (SMILES) | IC50 [1] [µg/mL] | IC50 [2] [µg/mL] | MIC (Escherichia coli) [µg/mL] | MIC (Staphylococcus aureus [3]) [µg/mL] | MIC (Streptococcus pneumoniae) [µg/mL] | MIC (Staphylococcus aureus [4]) [µg/mL] | MIC (Staphylococcus aureus [5]) [µg/mL] | MIC (Staphylococcus aureus [6]) [µg/mL] | MIC (Staphylococcus aureus [7]) [µg/mL] | MIC (Staphylococcus aureus [8]) [µg/mL]
20 | CCOC(=O)c1cc2c(cc1C(=O)NC1CCc3nn(-c4ccnc5ccc(OC)cc45)cc3C1)NC(=O)CS2 (centres undefined) |  |  | > 16 | 2 (≈ 3.59 µM) | > 16 |  |  |  |  | 
21 | COc1ccc2nccc(-n3cc4c(n3)CCC(NC(=O)c3cc5c(cc3C(=O)O)SCC(=O)N5)C4)c2c1 (centres undefined) |  |  | > 16 | 1 (≈ 1.89 µM) | > 16 |  |  |  |  | 
22 | COc1ccc2nccc(-n3cc4c(n3)CCC(NC(=O)/C=C/c3ccccc3)C4)c2n1 (centres undefined) | 8 (≈ 18.8 µM) |  |  | 0.25 (≈ 0.588 µM) | 2 (≈ 4.7 µM) |  |  |  |  | 
23 | COc1ccc2nccc(-n3cc4c(n3)CCC(NC(=O)/C=C/c3ccccc3)C4)c2c1 (centres undefined) | 16 (≈ 37.7 µM) | 0.5 (≈ 1.18 µM) |  | 1 (≈ 2.36 µM) | 4 (≈ 9.42 µM) |  |  |  |  | 
24 | COc1ccc2nccc(-n3cc4c(n3)CCC(NCCCc3ccccc3)C4)c2n1 (centres undefined) | 0.8 (≈ 1.93 µM) |  |  | 0.25 (≈ 0.605 µM) | < 0.125 |  |  |  |  | 
25 | COc1ccc2nccc(-n3cc4c(n3)CCC(NC(=O)c3ccc(C)c([N+](=O)[O-])c3)C4)c2c1 (centres undefined) | > 16 |  |  | 0.25 (≈ 0.546 µM) | 4 (≈ 8.74 µM) |  |  |  |  | 
26 | COc1ccc2nccc(-n3cc4c(n3)CCC(NC(=O)c3cc(F)c(Cl)cc3Cl)C4)c2c1 (centres undefined) |  |  |  | 0.25 (≈ 0.515 µM) | 8 (≈ 16.5 µM) |  |  |  |  | 
27 | COc1ccc2nccc(-n3cc4c(n3)CCC(NC(=O)c3cc5c(cc3C)SCC(=O)N5)C4)c2c1 (centres undefined) |  |  | 8 (≈ 16 µM) | 0.5 (≈ 1 µM) | 16 (≈ 32 µM) |  |  |  |  | 
28 | CCOC(=O)c1cc2c(cc1C(=O)NC1CCc3nn(-c4ccnc5ccc(OC)nc45)cc3C1)NC(=O)CS2 (centres undefined) |  |  | > 16 | 0.5 (≈ 0.895 µM) | > 16 |  |  |  |  | 
29 | COc1ccc2nccc(-n3cc4c(n3)CCC(NCc3ccc5c(c3)OCO5)C4)c2n1 (centres undefined) | 0.25 (≈ 0.582 µM) | 0.25 (≈ 0.582 µM) | 32 (≈ 74.5 µM) | 0.5 (≈ 1.16 µM) | 2 (≈ 4.66 µM) |  |  |  |  | 
30 | COc1ccc2nccc(-n3cc4c(n3)CCC(NCc3ccc5c(n3)NC(=O)CO5)C4)c2n1 (centres undefined) | < 0.125 | 0.016 (≈ 0.035 µM) | 2 (≈ 4.37 µM) | 0.25 (≈ 0.546 µM) | 2 (≈ 4.37 µM) |  |  |  |  | 
31 | COc1ccc2nccc(-n3cc4c(n3)CCC(NC(=O)c3cc5c(cc3C(=O)O)SCC(=O)N5)C4)c2n1 (centres undefined) |  |  | > 16 | 0.5 (≈ 0.942 µM) | 16 (≈ 30.2 µM) |  |  |  |  | 
32 | COc1ccc2nccc(-n3cc4c(n3)CCC(NC(=O)c3ccc(C)c([N+](=O)[O-])c3)C4)c2n1 (centres undefined) |  |  |  | 0.25 (≈ 0.545 µM) | 8 (≈ 17.4 µM) |  |  |  |  | 
33 | COc1ccc2nccc(-n3cc4c(n3)CCC(NC(=O)c3c(F)cc5c(c3F)NC(=O)CS5)C4)c2n1 (centres undefined) | 1 (≈ 1.91 µM) |  | > 128 | 0.125 (≈ 0.239 µM) | 4 (≈ 7.65 µM) |  |  |  |  | 
34 | COc1ccc2nccc(-n3cc4c(n3)CCC(NC(=O)c3cc5c(cc3Br)SCC(=O)N5)C4)c2c1 (centres undefined) | 0.5 (≈ 0.886 µM) | 0.125 (≈ 0.221 µM) | 2 (≈ 3.54 µM) | 0.125 (≈ 0.221 µM) | 2 (≈ 3.54 µM) |  |  |  |  | 
35 | COc1ccc2nccc(-n3cc4c(n3)CCC(NC(=O)c3cc5c(cc3C(F)(F)F)SCC(=O)N5)C4)c2n1 (centres undefined) | 0.25 (≈ 0.451 µM) |  | 4 (≈ 7.21 µM) | 0.125 (≈ 0.225 µM) | 8 (≈ 14.4 µM) |  |  |  |  | 
36 | COc1ccc2nccc(-n3cc4c(n3)CCC(NC(=O)c3ccc5c(c3)NC(=O)CO5)C4)c2c1 (centres undefined) | 0.25 (≈ 0.532 µM) | 0.5 (≈ 1.06 µM) | 2 (≈ 4.26 µM) | 0.125 (≈ 0.266 µM) | 4 (≈ 8.52 µM) |  |  |  |  | 
37 | O=C(O)c1cn(C2CC2)c2cc(N3CCNCC3)c(F)cc2c1=O [CIPROFLOXACIN] |  |  |  | 0.25 (≈ 0.754 µM) |  |  |  |  |  | 
38 | CCn1cc(C(=O)O)c(=O)c2cc(F)c(N3CCNCC3)cc21 [NORFLOXACIN] |  |  |  | 1 (≈ 3.13 µM) |  | > 128 | > 128 | 1 (≈ 3.13 µM) | 128 (≈ 401 µM) | > 128

— ChEMBL document CHEMBL1147922, “Tetrahydroindazole inhibitors of bacterial type II topoisomerases. Part 2: SAR development and potency against multidrug-resistant strains” (Bioorg Med Chem Lett, 2007)
